Measured values reported in EP0891975A1 (priority 1996, dated 1997).
Read-outs that look alike come from different tables or passages of the source.

Key:
[1] = tested on: Larvae of Plutella xylostella; assay: Insecticidal effect on larvae of Plutella xylostella (cabbage leaf disc dip); assay type: in vivo; details: foliar, 96 h, read-out: Death Rate (%)
Experimental: The agricultural and horticultural pesticide of the present invention (a wettable powder) was obtained in accordance with Formulation Example 1 and diluted with water to prepare a suspension having a prescribed concentration. A disc (6 cm in diameter) cut out of a cabbage leaf was soaked in the suspension for 1 minute, air-dried, and placed in a plastic cup (inner diameter: 7 cm). Five 3-instar larvae of Plutella xylostella were put in the cup (duplicates at one concentration). Four days later, the death and agony of the larvae were examined to obtain a death rate (%) taking an agonizing insect as a 1/2 dead insect. The results obtained are shown in Table 5 (the compound numbers in Table 5 correspond to those in Tables 1, 2 and 3).

[2] = Acute toxicity in mice in single oral administration; details: mouse, in vivo, 30 mg/kg, 30 mg-active ingredient/kg, five 6-week-old CD-1 male mice, 7 days after administration, read-out: Death Rate (%)
Experimental: Acute toxicity (p.o.) in mice of compound Nos. 8, 10, 13, 22, 23, 38, 42, and 52 was examined as follows. For comparison, compounds (IV), (V) and (VI) disclosed in JP-A-2-62876 were tested similarly.
Compound Nos. 8, 10, 22, 23, 38, and 42 (30 mg each) were each suspended in 10 ml of a 0.5% CMC-Na aqueous solution. Compound Nos. 13 and 52 and compounds (IV), (V) and (VI) (30 mg each) were each suspended in 10 ml of a 0.5% tragacanth gum aqueous solution. The suspension was orally given to a group each consisting of five 6-week-old CD-1 male mice (available from Charles River) at a dose of 10 ml-suspension per kg of the body weight. The number of dead mice was counted after 7 days from the administration to obtain a death rate.

[3] = tested on: Rice Blast Fungus (Magnaporthe grisea); assay type: in vivo; details: 250 ppm, 10 ml/pot foliar spray, rice (Akinishiki), lesions per leaf counted vs untreated pot after 24 hours moist chamber and 7 days greenhouse
[4] = tested on: Larvae of Nilaparvata lugens; assay: Insecticidal effect on larvae of Nilaparvata lugens (spray on rice seedling in glass cylinder); assay type: in vivo; details: 120 h, read-out: Death Rate (%)
Experimental: A rice seedling was setted in a glass cylinder (inner diameter: 3 cm; length: 17 cm), and five 4th instar larvae of Nilaparvata lugens were set free therein. The agricultural and horticultural pesticide of the present invention (an emulsifiable concentrate) was prepared in accordance with Formulation Example 3 and diluted with water, and 0.5 ml of the resulting emulsion was sprayed in the cylinder by means of a spray tower (manufactured by Mizuho Rika) (duplicates at 1 concentration). Five days after the treatment, the mortality and agony of the larvae were examined to obtain a death rate (%) taking an agonizing insect as a 1/2 dead insect. The results obtained are shown in Table 4 (the compound numbers in Table 4 correspond to those in Tables 1, 2 and 3).

[5] = tested on: Tomato Late Blight Fungus (Phytophthora infestans); assay type: in vivo; details: 250 ppm, 10 ml per pot foliar spray, tomato (Red Cherry), degree of disease vs untreated pot after 24 hours moist chamber and 4 days greenhouse
[6] = 500 ppm, wettable powder suspension, 3-instar larvae, four days later, agonizing insect counted as 1/2 dead
[7] = 500 ppm, emulsifiable concentrate diluted with water, 4th instar larvae, five days after treatment, agonizing insect counted as 1/2 dead

Compound	mortality at 500 ppm [1, 6]	mortality at 168 h [2]	Control Value (%) [3]	mortality at 500 ppm [4, 7]	Control Value (%) [5]	mortality at 500 ppm [1]	mortality at 500 ppm [4]
CCc1nn(C)c(C(=O)NCc2ccc(Oc3ccc4ccccc4c3)nc2)c1Cl [compound 38]	90%	0%	100%	90%	–	–	–
COc1c(C)nn(C)c1C(=O)N(Cc1ccc(Oc2ccc3ccccc3c2)nc1)C(C)=O [compound 52]	–	0%	–	90%	100%	–	–
Cc1nn(C)c(C(=O)NCc2ccc(Oc3ccc4ccccc4c3)nc2)c1Cl [compound 22]	–	0%	–	–	100%	–	–
Cn1nc2c(c1C(=O)NCc1ccc(Oc3ccc4ccccc4c3)nc1)CCC2 [compound 42]	100%	0%	–	90%	100%	–	–
Cc1nn(C)c(C(=O)NCc2ccc(Oc3cccc(Cl)c3)nc2)c1C [compound 8]	–	0%	–	100%	100%	–	–
Cc1nn(C)c(C(=O)NCc2ccc(Oc3ccc4ccccc4c3)nc2)c1Br [compound 23]	–	0%	–	–	–	–	–
Cc1nn(C)c(C(=O)NCc2ccc(Oc3cccc(C(F)(F)F)c3)nc2)c1C [Compound No. 10, N-[6-(3-Trifluoromethylphenoxy)-3-pyridylmethyl]-1,3,4-trimethyl-5-pyrazolecarboxamide]	–	0%	89%	–	100%	100%	100%
CCc1nn(C)c(C(=O)NCc2ccc(Oc3cccc(C(F)(F)F)c3)nc2)c1Cl [compound 13]	100%	0%	87%	100%	85%	–	–
